The source of these data is patent publication US20250188110A1, “SPECIFIC SMALL MOLECULE INHIBITORS THAT BLOCK KMT9 METHYLTRANSFERASE ACTIVITY AND FUNCTION” (ALBERT-LUDWIGS-UNIVERSITÄT FREIBURG, priority 2021, published 2025).

Read-outs that look alike come from different tables or passages of the source. A value given as a limit tells only on which side of the number the result lay.

The target in experiment [1] is T1, KMT9 (Homo sapiens, UniProt Q9Y5N5).
T1 sequence (Q9Y5N5 1-214): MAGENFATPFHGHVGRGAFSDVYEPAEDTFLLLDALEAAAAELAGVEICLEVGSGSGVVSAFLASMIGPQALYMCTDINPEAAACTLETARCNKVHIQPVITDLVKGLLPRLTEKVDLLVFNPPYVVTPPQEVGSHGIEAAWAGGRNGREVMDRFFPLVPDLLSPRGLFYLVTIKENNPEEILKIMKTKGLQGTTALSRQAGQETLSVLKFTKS
T1 sequence (Q9UI30 1-120 isoform Q9UI30-2 partner): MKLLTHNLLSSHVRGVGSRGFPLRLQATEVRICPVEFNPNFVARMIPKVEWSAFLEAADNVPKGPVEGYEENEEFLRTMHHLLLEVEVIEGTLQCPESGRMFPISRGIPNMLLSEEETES
The experiment can be described thus: KMT9 thermal shift assay (SyproOrange). In kind it is binding. Summed up:
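Recombinant KMT9 was incubated with compound and SyproOrange at 25° C in 50 mM BTP pH 8.5, 1 mM MgCl2, 1 mM DTT. It was then heated from 20° C to 95° C at 1° C per 15 s with fluorescence read each step. Tm came from a Boltzmann sigmoidal fit; ΔTm relative to DMSO control, binned in 5 K ranges.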

For experiment [2], the target named is T1, KMT9. In words: KMT9 methyltransferase inhibition assay, MTaseGlo luminescence (from entry 155). It is filed as biochemical. The note with it: 100 nM KMT9, 5 μM ETF1, 1 μM SAM. Summed up:
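KMT9 (100 nM final) pre-incubated with inhibitor for 15 min at room temperature, then reacted with 5 μM ETF1 and 1 μM SAM for 2 h at 30° C. at 2% DMSO final. MTaseGlo luminescence read after 60 min detection; IC50 reported in four potency bins.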

Experiment [3] deals with T1, KMT9. The experiment can be described thus: Microscale thermophoresis (MST) KMT9 binding. Summed up: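 His-tagged KMT9 (20 nM), RED-Tris-NTA labelled, titrated with varying compound concentrations in 25 mM HEPES pH 7.5, 100 mM NaCl, 1 mM DTT, 0.05% Tween. MST at 40% MST and 100% LED power, Nano-RED excitation; Kd binned A ≤10 nM, B 10–100, C 100–1000, D >1000 nM.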
Where [4] appears, read: ΔTm, 500 µM compound, 2 μM KMT9, 5X SO, read-out: Thermal shift.
[5] abbreviates: from entry 155: MTaseGlo assay, read-out: Inhibition.
[6] abbreviates: microscale thermophoresis, His-tag labelled KMT9 (20 nM), read-out: MST.
Where [7] appears, read: ΔTm class, 500 uM compound, 2 μM KMT9, read-out: Thermal shift.
[8] abbreviates: IC50 class, MTaseGlo procedure (entries from 155 on), read-out: Inhibition.
Where [9] appears, read: His-tag labelled KMT9 20 nM, Kd class, read-out: MST.
The mark [10] stands for this setting: 500 µM compound, 2 μM KMT9, read-out: Thermal shift (ΔTm).
Setting [11] is: MTaseGlo procedure (entries from 155), read-out: Inhibition (IC50).
Where [12] appears, read: His-tag labelled KMT9 20 nM, read-out: MST (Kd).

Take `Nc1nc(Cl)nc2c1c(-c1ccn(Cc3ccccc3)n1)cn2[C@@H]1C[C@H](C2CCNCC2)[C@@H](O)[C@H]1O` [Compound 501, (1R,2S,3R,5R)-3-(4-Amino-5-(1-benzyl-1H-pyrazol-3-yl)-2-chloro-7H-pyrrolo[2,3-d]pyrimidin-7-yl)-5-(piperidin-4-yl)cyclopentane-1,2-diol]: in experiment [1] (setting [4]), the ΔTm at 500 µM was over 20 °C. Further, the IC50 in experiment [2] (setting [5]) was under 100 nM. For the same molecule, in experiment [3] (setting [6]), the Kd is at most 10 nM.

For `CN1CCC([C@H]2C[C@@H](n3cc(-c4ccn(Cc5ccccc5)n4)c4c(N)nc(Cl)nc43)[C@H](O)[C@@H]2O)CC1` [Compound 502, (1R,2S,3R,5R)-3-(4-amino-5-(1-benzyl-1H-pyrazol-3-yl)-2-chloro-7H-pyrrolo[2,3-d]pyrimidin-7-yl)-5-(1-methylpiperidin-4-yl)cyclopentane-1,2-diol], the ΔTm at 500 µM in experiment [1] (setting [4]) is over 20 °C. Further, the IC50 in experiment [2] (setting [5]) lay within 100 to 1000 nM. Also, the Kd in experiment [3] (setting [6]) is at most 10 nM.

As to `Nc1ncnc2c1c(-c1nc(Cc3ccccc3)cs1)cn2[C@@H]1C[C@H](C2=CCCNC2)[C@@H](O)[C@H]1O` [Compound 503, (1R,2S,3R,5R)-3-(4-amino-5-(4-benzylthiazol-2-yl)-7H-pyrrolo[2,3-d]pyrimidin-7-yl)-5-(1,2,5,6-tetrahydropyridin-3-yl)cyclopentane-1,2-diol], the ΔTm at 500 µM in experiment [1] (setting [4]) is 15 to 20 °C. Moreover, the IC50 in experiment [2] (setting [5]) lay within 1000 to 10000 nM. Besides, the Kd in experiment [3] (setting [6]) was in the range of 100 to 1000 nM.

For the molecule `CCN1CCC([C@H]2C[C@@H](n3cc(-c4nc(Cc5ccccc5)cs4)c4c(N)nc(Cl)nc43)[C@H](O)[C@@H]2O)CC1` [Compound 504, (1R,2S,3R,5R)-3-[4-amino-5-(4-benzyl-1,3-thiazol-2-yl)-2-chloropyrrolo[2,3-d]pyrimidin-7-yl]-5-(1-ethylpiperidin-4-yl)cyclopentane-1,2-diol], in experiment [1] (setting [7]), the ΔTm at 500 µM was over 20 °C. In addition, the IC50 in experiment [2] (setting [8]) was in the range of 100 to 1000 nM. The Kd in experiment [3] (setting [9]) is at most 10 nM.

As for `CN1CCC([C@H]2C[C@@H](n3cc(-c4nc(Cc5ccccc5)cs4)c4c(N)nc(Cl)nc43)[C@H](O)[C@@H]2O)CC1` [Compound 505, (1R,2S,3R,5R)-3-(4-amino-5-(4-benzylthiazol-2-yl)-2-chloro-7H-pyrrolo[2,3-d]pyrimidin-7-yl)-5-(1-methylpiperidin-4-yl)cyclopentane-1,2-diol], the ΔTm at 500 µM in experiment [1] (setting [7]) was over 20 °C. The IC50 in experiment [2] (setting [8]) lay in the range of 100 to 1000 nM. In addition, in experiment [3] (setting [9]), the Kd is at most 10 nM.

In the case of `CC(C)N1CCC([C@H]2C[C@@H](n3cc(-c4nc(Cc5ccccc5)cs4)c4c(N)nc(Cl)nc43)[C@H](O)[C@@H]2O)CC1` [Compound 506, (1R,2S,3R,5R)-3-[4-amino-5-(4-benzyl-1,3-thiazol-2-yl)-2-chloropyrrolo[2,3-d]pyrimidin-7-yl]-5-(1-isopropylpiperidin-4-yl)cyclopentane-1,2-diol], the ΔTm at 500 µM in experiment [1] (setting [7]) is over 20 °C. Moreover, the IC50 in experiment [2] (setting [8]) was 100 to 1000 nM. Besides, the Kd in experiment [3] (setting [9]) was at most 10 nM.

As to `Nc1nc(Cl)nc2c1c(-c1nc(Cc3ccccc3)cs1)cn2[C@@H]1C[C@H](C2CCN(CC3CC3)CC2)[C@@H](O)[C@H]1O` [Compound 507, (1R,2S,3R,5R)-3-[4-amino-5-(4-benzyl-1,3-thiazol-2-yl)-2-chloropyrrolo[2,3-d]pyrimidin-7-yl]-5-[1-(cyclopropylmethyl)piperidin-4-yl]cyclopentane-1,2-diol], the ΔTm at 500 µM in experiment [1] (setting [7]) was over 20 °C. Also, the IC50 in experiment [2] (setting [8]) is 100 to 1000 nM. For the same molecule, in experiment [3] (setting [9]), the Kd was at most 10 nM.

In the case of `Nc1nc(Cl)nc2c1c(-c1nc(Cc3ccccc3)cs1)cn2[C@@H]1C[C@H](C2CCN(CCF)CC2)[C@@H](O)[C@H]1O` [Compound 508, (1R,2S,3R)-3-[4-amino-5-(4-benzyl-1,3-thiazol-2-yl)-2-chloropyrrolo[2,3-d]pyrimidin-7-yl]-5-[1-(2-fluoroethyl)piperidin-4-yl]cyclopentane-1,2-diol], the ΔTm at 500 µM in experiment [1] (setting [10]) fell in the range of 15 to 20 °C. Further, the IC50 in experiment [2] (setting [11]) lay in the range of 100 to 1000 nM. In experiment [3] (setting [12]), the Kd is at most 10 nM.

`C=CCN1CCC([C@H]2C[C@@H](n3cc(-c4nc(Cc5ccccc5)cs4)c4c(N)nc(Cl)nc43)[C@H](O)[C@@H]2O)CC1` [Compound 509, (1R,2S,3R,5R)-3-[4-amino-5-(4-benzyl-1,3-thiazol-2-yl)-2-chloropyrrolo[2,3-d]pyrimidin-7-yl]-5-[1-(prop-2-en-1-yl)piperidin-4-yl]cyclopentane-1,2-diol]: the ΔTm at 500 µM in experiment [1] (setting [10]) lay within 15 to 20 °C. The IC50 in experiment [2] (setting [11]) lay in the range of 1000 to 10000 nM. Besides, in experiment [3] (setting [12]), the Kd was at most 10 nM.

`CC(=O)CN1CCC([C@H]2C[C@@H](n3cc(-c4nc(Cc5ccccc5)cs4)c4c(N)nc(Cl)nc43)[C@H](O)[C@@H]2O)CC1` [Compound 510, 1-{4-[(1R,2R,3S,4R)-4-[4-amino-5-(4-benzyl-1,3-thiazol-2-yl)-2-chloropyrrolo[2,3-d]pyrimidin-7-yl]-2,3-dihydroxycyclopentyl]piperidin-1-yl}propan-2-one]: the ΔTm at 500 µM in experiment [1] (setting [10]) was in the range of 15 to 20 °C. Also, the IC50 in experiment [2] (setting [11]) fell in the range of 100 to 1000 nM. Further, the Kd in experiment [3] (setting [12]) was in the range of 10 to 100 nM.

As for `Nc1nc(Cl)nc2c1c(-c1nc(Cc3ccccc3)cs1)cn2[C@@H]1C[C@H](C2CCN(CC(F)F)CC2)[C@@H](O)[C@H]1O` [Compound 511, (1R,2S,3R,5R)-3-[4-amino-5-(4-benzyl-1,3-thiazol-2-yl)-2-chloropyrrolo[2,3-d]pyrimidin-7-yl]-5-[1-(2,2-difluoroethyl)piperidin-4-yl]cyclopentane-1,2-diol], the ΔTm at 500 µM in experiment [1] (setting [10]) was 10 to 15 °C. Besides, the IC50 in experiment [2] (setting [11]) lay in the range of 1000 to 10000 nM. For the same molecule, the Kd in experiment [3] (setting [12]) lay within 100 to 1000 nM.

Consider `Nc1nc(Cl)nc2c1c(-c1nccs1)cn2[C@@H]1C[C@H](C2CCN(CCc3ccncc3)CC2)[C@@H](O)[C@H]1O` [Compound 514, (1R,2S,3R,5R)-3-[4-amino-2-chloro-5-(1,3-thiazol-2-yl)pyrrolo[2,3-d]pyrimidin-7-yl]-5-{1-[2-(pyridin-4-yl)ethyl]piperidin-4-yl}cyclopentane-1,2-diol], for which the ΔTm at 500 µM in experiment [1] (setting [10]) was 15 to 20 °C. Also, the IC50 in experiment [2] (setting [11]) lay within 100 to 1000 nM. Moreover, the Kd in experiment [3] (setting [12]) was at most 10 nM.

In the case of `CN1CCCC([C@H]2C[C@@H](n3cc(-c4nc(Cc5ccccc5)cs4)c4cnc(Cl)nc43)[C@H](O)[C@@H]2O)C1` (stereo partly drawn) [Compound 515, (1R,2S,3R)-3-[5-(4-benzyl-1,3-thiazol-2-yl)-2-chloropyrrolo[2,3-d]pyrimidin-7-yl]-5-(1-methylpiperidin-3-yl)cyclopentane-1,2-diol], in experiment [1] (setting [7]), the ΔTm at 500 µM was in the range of 15 to 20 °C. In addition, the IC50 in experiment [2] (setting [8]) is 1000 to 10000 nM. The Kd in experiment [3] (setting [9]) was in the range of 100 to 1000 nM.

`O[C@@H]1[C@H](O)[C@@H](C2CCCN(CC(F)(F)F)C2)C[C@H]1n1cc(-c2nc(Cc3ccccc3)cs2)c2cnc(Cl)nc21` (stereo partly drawn) [Compound 517, (1R,2S,3R,5R)-3-(5-(4-benzylthiazol-2-yl)-2-chloro-7H-pyrrolo[2,3-d]pyrimidin-7-yl)-5-(1-(2,2,2-trifluoroethyl)-313-piperidin-3-yl)cyclopentane-1,2-diol]: the ΔTm at 500 µM in experiment [1] (setting [7]) was at most 10 °C. In experiment [2] (setting [8]), the IC50 is over 10000 nM. Besides, in experiment [3] (setting [9]), the Kd was over 1000 nM.

For the molecule `O[C@@H]1[C@H](O)[C@@H](C2CCCN(CCc3ccccc3)C2)C[C@H]1n1cc(-c2nc(Cc3ccccc3)cs2)c2cnc(Cl)nc21` (stereo partly drawn) [Compound 518, (1R,2S,3R,5R)-3-(5-(4-benzylthiazol-2-yl)-2-chloro-7H-pyrrolo[2,3-d]pyrimidin-7-yl)-5-(1-phenethylpiperidin-3-yl)cyclopentane-1,2-diol], the ΔTm at 500 µM in experiment [1] (setting [7]) was at most 10 °C. Further, the IC50 in experiment [2] (setting [8]) was over 10000 nM. In addition, the Kd in experiment [3] (setting [9]) was over 1000 nM.
